pKd: −log10 of the molar value.
Key:
BRD1 = biological target: T1, BRD1 (Homo sapiens, UniProt O95696); experiment: BROMOscan bromodomain competitive binding assay (DiscoveRx), BRD1; conditions: BROMOscan platform, n = 2
T1 construct: purchased DiscoveRx (BROMOscan platform); host or cells: E. coli host derived from BL21 (T7 phage)
T1 sequence (O95696 562-666 limits assumed): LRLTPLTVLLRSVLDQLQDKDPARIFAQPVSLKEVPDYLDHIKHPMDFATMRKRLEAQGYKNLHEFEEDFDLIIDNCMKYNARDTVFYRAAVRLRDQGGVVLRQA
Procedure: (§1) Compounds were tested using the commercially available BROMOscan™ Platform (DiscoveRx): http://www.discoverx.com/technologies-platforms/competitive-binding-technology/bromoscan-technology-platform/bromoscan-assay-process.
(§2) Bromodomain assays. T7 phage strains displaying bromodomains were grown in parallel in 24-well blocks in an E. coli host derived from the BL21 strain. E. coli were grown to log-phase and infected with T7 phage from a frozen stock (multiplicity of infection=0.4) and incubated with shaking at 32° C. until lysis (90-150 minutes). The lysates were centrifuged (5,000×g) and filtered (0.2 μm) to remove cell debris. […] The liganded beads were blocked with excess biotin and washed with blocking buffer (SeaBlock (Pierce), 1% BSA, 0.05% Tween 20, 1 mM DTT) to remove unbound ligand and to reduce non-specific phage binding. […] Test compounds were prepared as 1000× stocks in 100% DMSO and subsequently diluted 1:10 in monoethylene glycol (MEG) to create stocks at 100× the screening concentration (resulting stock solution is 10% DMSO/90% MEG). The compounds were then diluted directly into the assays such that the final concentration of DMSO and MEG were 0.1% and 0.9%, respectively. All reactions were performed in polystyrene 96-well plates in a final volume of 0.135 ml. […] The bromodomain concentration in the eluates was measured by qPCR.
(§3) An 11-point 3-fold serial dilution of each test compound was prepared in 100% DMSO at 1000× final test concentration. This serial is then diluted to 100× in ethylene glycol and subsequently diluted to 1× in the assay (final DMSO concentration=0.1%, Ethylene glycol concentration=0.9%). Most Kds were determined using a compound top concentration=10,000 nM.
(§4) Binding constants (Kds) were calculated with a standard dose-response curve using the Hill equation: […]
(§5) The Hill Slope was set to −1. Curves were fitted using a non-linear least square fit with the Levenberg-Marquardt algorithm.
(§6) BROMOscan™ uses the same assay technology as KINOMEscan™. For a more detailed description of this assay technology, see Fabian et al.12

BRPF1B = biological target: T2, BRPF1B (Homo sapiens, UniProt P55201); experiment: BROMOscan bromodomain competitive binding assay (DiscoveRx), BRPF1B; conditions: BROMOscan platform, n = 2 unless cell says n = 4
T2 construct: purchased DiscoveRx (BROMOscan platform); host or cells: E. coli host derived from BL21 (T7 phage)
T2 sequence (P55201 628-732 limits assumed): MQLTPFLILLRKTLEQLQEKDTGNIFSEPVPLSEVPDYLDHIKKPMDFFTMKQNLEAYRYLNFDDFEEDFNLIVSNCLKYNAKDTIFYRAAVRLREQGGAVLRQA
Procedure: as §1, §2, §3, §4, §5, §6

BRPF3 = biological target: T3, BRPF3 (Homo sapiens, UniProt Q9ULD4); experiment: BROMOscan bromodomain competitive binding assay (DiscoveRx), BRPF3; conditions: BROMOscan platform, n = 2
T3 construct: purchased DiscoveRx (BROMOscan platform); host or cells: E. coli host derived from BL21 (T7 phage)
T3 sequence (Q9ULD4 589-693 limits assumed): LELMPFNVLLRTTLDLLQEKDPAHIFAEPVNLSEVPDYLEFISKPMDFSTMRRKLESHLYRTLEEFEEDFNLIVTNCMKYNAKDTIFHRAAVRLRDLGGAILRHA
Procedure: as §1, §2, §3, §4, §5, §6

BRD9 = biological target: T4, BRD9 (Homo sapiens, UniProt Q9H8M2); experiment: BROMOscan bromodomain competitive binding assay (DiscoveRx), BRD9; conditions: BROMOscan platform, n = 2
T4 construct: purchased DiscoveRx (BROMOscan platform); host or cells: E. coli host derived from BL21 (T7 phage)
T4 sequence (Q9H8M2 136-240 limits assumed): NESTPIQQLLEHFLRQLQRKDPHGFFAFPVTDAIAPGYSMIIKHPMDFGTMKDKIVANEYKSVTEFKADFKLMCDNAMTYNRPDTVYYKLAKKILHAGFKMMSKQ
Procedure: as §1, §2, §3, §4, §5, §6

Row | Structure (SMILES) | pKd (BRD1) | pKd (BRPF1B) | pKd (BRPF3) | pKd (BRD9)
1 | Cn1c(=O)ccc2cc(NS(=O)(=O)c3ccccc3)ccc21 [Compound 1, N-(1-methyl-2-oxo-1,2-dihydroquinolin-6-yl)benzenesulfonamide] | 5.85 | 7.19 | 5.12 | 
2 | Cn1c(=O)ccc2cc(NS(=O)(=O)c3ccccc3C#N)ccc21 [Compound 2, 2-cyano-N-(1-methyl-2-oxo-1,2-dihydroquinolin-6-yl)benzenesulfonamide] | 5.77 | 6.37 |  | 
3 | Cn1c(=O)ccc2cc(NS(=O)(=O)c3cccc(C#N)c3)ccc21 [Compound 3, 3-cyano-N-(1-methyl-2-oxo-1,2-dihydroquinolin-6-yl)benzenesulfonamide] | 6.57 | 7.25 |  | 
4 | Cn1c(=O)ccc2cc(NS(=O)(=O)c3ccc(C#N)cc3)ccc21 [Compound 4, 4-cyano-N-(1-methyl-2-oxo-1,2-dihydroquinolin-6-yl)benzenesulfonamide] | 6.70 | 7.37 | 6.00 | 6.04
5 | Cn1c(=O)ccc2cc(NS(=O)(=O)c3ccc(Cl)c(Cl)c3)ccc21 [Compound 9, 3,4-dichloro-N-(1-methyl-2-oxo-1,2-dihydroquinolin-6-yl)benzenesulfonamide] | 6.64 | 7.36 |  | 
6 | COc1cc2c(ccc(=O)n2C)cc1NS(=O)(=O)c1ccccc1 [Compound 10, N-(7-methoxy-1-methyl-2-oxo-1,2-dihydroquinolin-6-yl)benzenesulfonamide] | 6.42 | 7.54 | 5.66 | 
7 | COc1cc2c(ccc(=O)n2C)cc1NS(=O)(=O)c1ccc(C#N)cc1 [Compound 11, 4-cyano-N-(7-methoxy-1-methyl-2-oxo-1,2-dihydroquinolin-6-yl)benzenesulfonamide] | 6.28 | 7.28 | 5.66 | 5.57
8 | CCOc1cc2c(ccc(=O)n2C)cc1NS(=O)(=O)c1ccc(C#N)cc1 [Compound 13, 4-cyano-N-(7-ethoxy-1-methyl-2-oxo-1,2-dihydroquinolin-6-yl)benzenesulfonamide] |  | 7.26 |  | 
9 | CC(C)Oc1cc2c(ccc(=O)n2C)cc1NS(=O)(=O)c1ccc(C#N)cc1 [Compound 14, 4-cyano-N-(7-isopropoxy-1-methyl-2-oxo-1,2-dihydroquinolin-6-yl)benzenesulfonamide] |  | 7.41 |  | 
10 | COc1c(NS(=O)(=O)c2ccc(C#N)cc2)ccc2c1ccc(=O)n2C [Compound 16, 4-cyano-N-(5-methoxy-1-methyl-2-oxo-1,2-dihydroquinolin-6-yl)benzenesulfonamide] | 6.68 | 7.34 |  | 
11 | Cn1c(=O)ccc2c(Br)c(NS(=O)(=O)c3ccc(C#N)cc3)ccc21 [Compound 18, N-(5-bromo-1-methyl-2-oxo-1,2-dihydroquinolin-6-yl)-4-cyanobenzenesulfonamide] | 6.08 | 6.68 |  | 
12 | COc1cc2c(cc1NS(=O)(=O)c1ccccc1)cc(C)c(=O)n2C [Compound 21, N-(7-methoxy-1,3-dimethyl-2-oxo-1,2-dihydroquinolin-6-yl)benzenesulfonamide] | 6.72 | 7.77 | 6.23 | 
13 | COc1cc2c(cc1NS(=O)(=O)c1ccc(C#N)cc1)cc(C)c(=O)n2C [Compound 22, 4-cyano-N-(7-methoxy-1,3-dimethyl-2-oxo-1,2-dihydroquinolin-6-yl)benzenesulfonamide] | 7.00 | 7.82 | 6.55 | 
14 | COc1cc2c(cc1NS(=O)(=O)c1ccc(N)cc1)cc(C)c(=O)n2C [Compound 25, 4-amino-N-(7-methoxy-1,3-dimethyl-2-oxo-1,2-dihydroquinolin-6-yl)benzenesulfonamide] |  | 6.38 |  | 
15 | Cc1cc(=O)n(C)c2ccc(NS(=O)(=O)c3ccc(C#N)cc3)cc12 [Compound 30, 4-cyano-N-(1,4-dimethyl-2-oxo-1,2-dihydroquinolin-6-yl)benzenesulfonamide] | 6.82 | 7.62 |  | 
16 | CN(c1ccc2c(ccc(=O)n2C)c1)S(=O)(=O)c1ccc(C#N)cc1 [Compound 34, 4-cyano-N-methyl-N-(1-methyl-2-oxo-1,2-dihydroquinolin-6-yl)benzenesulfonamide] | 5.17 | 6.04 |  | 

Row | Structure (SMILES) | pKd (BRD1) | pKd (BRPF1B) | pKd (BRPF3) | pKd (BRD9)
17 | CCn1c(=O)ccc2cc(NS(=O)(=O)c3ccc(C#N)cc3)ccc21 [Compound 35, 4-cyano-N-(1-ethyl-2-oxo-1,2-dihydroquinolin-6-yl)benzenesulfonamide] | 6.41 | 7.33 |  | 
18 | Cn1c(=O)ccc2cc(S(=O)(=O)Nc3ccc(C#N)cc3)ccc21 [Compound 38, N-(4-cyanophenyl)-1-methyl-2-oxo-1,2-dihydroquinoline-6-sulfonamide] | 6.82 | 7.00 |  | 
19 | CCc1cc2cc(NS(=O)(=O)c3ccc(C#N)cc3OC)ccc2n(C)c1=O [Compound 45, 4-cyano-N-(3-ethyl-1-methyl-2-oxo-1,2-dihydroquinolin-6-yl)-2-methoxybenzenesulfonamide] |  | 7.18 |  | 
20 | COc1cc(C#N)ccc1S(=O)(=O)Nc1cc(F)c2c(c1)cc(C)c(=O)n2C [Compound 49, 4-cyano-N-(8-fluoro-1,3-dimethyl-2-oxo-1,2-dihydroquinolin-6-yl)-2-methoxybenzenesulfonamide] |  | 8.00 |  | 
21 | COc1cc2c(cc1NS(=O)(=O)c1ccc(C#N)cc1)c(C)c(C)c(=O)n2C [Compound 50, 4-cyano-N-(7-methoxy-1,3,4-trimethyl-2-oxo-1,2-dihydroquinolin-6-yl)benzenesulfonamide] |  | 6.85 |  | 
22 | Cn1c(=O)ccc2cc(NS(C)(=O)=O)ccc21 [Compound 51, N-(1-methyl-2-oxo-1,2-dihydroquinolin-6-yl)methanesulfonamide] |  | 5.66 |  | 
23 | CCS(=O)(=O)Nc1ccc2c(ccc(=O)n2C)c1 [Compound 52, N-(1-methyl-2-oxo-1,2-dihydroquinolin-6-yl)ethanesulfonamide] |  | 5.92 |  | 
24 | CC(C)S(=O)(=O)Nc1ccc2c(ccc(=O)n2C)c1 [Compound 53, N-(1-methyl-2-oxo-1,2-dihydroquinolin-6-yl)propane-2-sulfonamide] |  | 5.96 |  | 
25 | Cn1c(=O)ccc2cc(NS(=O)(=O)C3CC3)ccc21 [Compound 54, N-(1-methyl-2-oxo-1,2-dihydroquinolin-6-yl)cyclopropanesulfonamide] |  | 6.28 |  | 
26 | Cn1c(=O)ccc2cc(NS(=O)(=O)C3CCCCC3)ccc21 [Compound 55, N-(1-methyl-2-oxo-1,2-dihydroquinolin-6-yl)cyclohexanesulfonamide] |  | 6.42 |  | 
27 | Cc1cc2cc(NS(=O)(=O)C3CCCCC3)ccc2n(C)c1=O [Compound 56, N-(1,3-dimethyl-2-oxo-1,2-dihydroquinolin-6-yl)cyclohexanesulfonamide] |  | 7.51 |  | 
28 | COc1cc(C#N)ccc1S(=O)(=O)N(C)c1ccc2c(c1)cc(C)c(=O)n2C [Compound 59, 4-cyano-N-(1,3-dimethyl-2-oxo-1,2-dihydroquinolin-6-yl)-2-methoxy-N-methylbenzenesulfonamide] |  | 7.28 |  | 
29 | COc1cc(C(N)=O)ccc1S(=O)(=O)Nc1ccc2c(c1)cc(C)c(=O)n2C [Compound 62, 4-(N-(1,3-dimethyl-2-oxo-1,2-dihydroquinolin-6-yl)sulfamoyl)-3-methoxybenzamide] |  | 8.30 |  | 
30 | COc1cc2c(cc1NS(=O)(=O)c1ccccc1OC(F)(F)F)cc(C)c(=O)n2C [Compound 67, N-(7-methoxy-1,3-dimethyl-2-oxo-1,2-dihydroquinolin-6-yl)-2-(trifluoromethoxy)benzenesulfonamide] |  | 7.32 |  | 
31 | COc1ccccc1S(=O)(=O)Nc1ccc2c(c1)cc(C)c(=O)n2C [Compound P-001, N-(1,3-dimethyl-2-oxo-1,2-dihydroquinolin-6-yl)-2-methoxybenzenesulfonamide, reference compound] | 6.89 | 8.05 |  | 
